Laboratory results taken from the kinase profiling compilation of Christmann-Franck et al. (2016).

Experiments:
Experiment in all cases: KINOMEscan competition binding
Details in all cases: compound 10.0 µM
CDK8 (human) = CDK8 (human) (UniProt P49336)
SYK (human) = SYK (human) (UniProt P43405)
MYLK3 (human) = MYLK3 (human) (UniProt Q32MK0)
KIT (human) = KIT (human) (UniProt P10721)
LATS1 (human) = LATS1 (human) (UniProt O95835)
ABL2 (human) = ABL2 (human) (UniProt P42684)
ACVR1B (human) = ACVR1B (human) (UniProt P36896)
BRSK1 (human) = BRSK1 (human) (UniProt Q8TDC3)
TEK (human) = TEK (human) (UniProt Q02763)
CaMK1 (human) = CaMK1 (human) (UniProt Q14012)
IGF1R (human) = IGF1R (human) (UniProt P08069)
CHEK2 (human) = CHEK2 (human) (UniProt O96017)
CLK3 (human) = CLK3 (human) (UniProt P49761)
CAMK1G (human) = CAMK1G (human) (UniProt Q96NX5)
DDR1 (human) = DDR1 (human) (UniProt Q08345)
MAPK1 (human) = MAPK1 (human) (UniProt P28482)
ALK (human) = ALK (human) (UniProt Q9UM73)
STK16 (human) = STK16 (human) (UniProt O75716)
STK16 (human), sequence (O75716 whole entry, looked up): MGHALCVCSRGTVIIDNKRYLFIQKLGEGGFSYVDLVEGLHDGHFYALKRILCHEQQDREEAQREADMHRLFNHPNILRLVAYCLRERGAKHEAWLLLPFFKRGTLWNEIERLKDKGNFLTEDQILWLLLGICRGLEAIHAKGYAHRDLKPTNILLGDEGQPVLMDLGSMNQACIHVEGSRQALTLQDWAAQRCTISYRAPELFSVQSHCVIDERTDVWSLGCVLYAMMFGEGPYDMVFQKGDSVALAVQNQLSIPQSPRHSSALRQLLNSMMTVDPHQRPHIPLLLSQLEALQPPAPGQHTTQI

MKNK1 (human) = MKNK1 (human) (UniProt Q9BUB5)
RPS6KA5 KD1 (human) = RPS6KA5 KD1 (human) (UniProt O75582)
NEK2 (human) = NEK2 (human) (UniProt P51955)
[1] = test system: EGFR (human), P00533 [G719S]
EIF2AK2 (human) = EIF2AK2 (human) (UniProt P19525)
PTK6 (human) = PTK6 (human) (UniProt Q13882)
PTK6 (human), sequence (Q13882 whole entry, looked up): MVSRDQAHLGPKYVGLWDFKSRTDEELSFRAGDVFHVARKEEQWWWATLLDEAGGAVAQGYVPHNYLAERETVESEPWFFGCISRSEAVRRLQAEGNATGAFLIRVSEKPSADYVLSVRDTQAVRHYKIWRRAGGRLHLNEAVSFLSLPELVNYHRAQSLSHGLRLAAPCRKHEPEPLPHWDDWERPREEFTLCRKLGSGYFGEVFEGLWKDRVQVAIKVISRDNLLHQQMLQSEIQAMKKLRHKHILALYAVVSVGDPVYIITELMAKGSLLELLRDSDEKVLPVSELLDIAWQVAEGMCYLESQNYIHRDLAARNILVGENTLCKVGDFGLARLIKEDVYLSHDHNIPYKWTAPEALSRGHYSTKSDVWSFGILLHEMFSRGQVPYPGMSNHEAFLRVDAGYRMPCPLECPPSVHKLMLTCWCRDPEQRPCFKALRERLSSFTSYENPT

INSR (human) = INSR (human) (UniProt P06213)
EPHA2 (human) = EPHA2 (human) (UniProt P29317)
MAP4K2 (human) = MAP4K2 (human) (UniProt Q12851)
HCK (human) = HCK (human) (UniProt P08631)
HCK (human), sequence (P08631 whole entry, looked up): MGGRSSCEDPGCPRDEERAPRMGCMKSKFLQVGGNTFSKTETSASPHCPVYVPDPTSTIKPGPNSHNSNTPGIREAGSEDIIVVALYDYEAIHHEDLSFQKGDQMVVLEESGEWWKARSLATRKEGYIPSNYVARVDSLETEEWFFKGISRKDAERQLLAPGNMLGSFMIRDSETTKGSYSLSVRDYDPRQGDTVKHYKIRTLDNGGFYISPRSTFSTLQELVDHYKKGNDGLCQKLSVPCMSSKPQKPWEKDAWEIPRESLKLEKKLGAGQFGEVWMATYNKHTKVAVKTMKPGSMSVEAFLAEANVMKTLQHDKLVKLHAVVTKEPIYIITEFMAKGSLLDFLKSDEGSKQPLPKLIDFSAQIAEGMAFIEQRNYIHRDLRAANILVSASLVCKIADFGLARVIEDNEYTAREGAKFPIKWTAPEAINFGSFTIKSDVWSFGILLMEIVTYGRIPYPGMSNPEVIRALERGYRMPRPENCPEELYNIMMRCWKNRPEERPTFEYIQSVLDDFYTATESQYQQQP

CDK9 (human) = CDK9 (human) (UniProt P50750)
FES (human) = FES (human) (UniProt P07332)
ACVRL1 (human) = ACVRL1 (human) (UniProt P37023)
NUAK2 (human) = NUAK2 (human) (UniProt Q9H093)
CDK17 (human) = CDK17 (human) (UniProt Q00537)
CDK2 (human) = CDK2 (human) (UniProt P24941)
[2] = biological target: TYK2 JH2 pseudokinase (human) (UniProt P29597)
GAK (human) = GAK (human) (UniProt O14976)
GAK (human), sequence (O14976 whole entry, looked up): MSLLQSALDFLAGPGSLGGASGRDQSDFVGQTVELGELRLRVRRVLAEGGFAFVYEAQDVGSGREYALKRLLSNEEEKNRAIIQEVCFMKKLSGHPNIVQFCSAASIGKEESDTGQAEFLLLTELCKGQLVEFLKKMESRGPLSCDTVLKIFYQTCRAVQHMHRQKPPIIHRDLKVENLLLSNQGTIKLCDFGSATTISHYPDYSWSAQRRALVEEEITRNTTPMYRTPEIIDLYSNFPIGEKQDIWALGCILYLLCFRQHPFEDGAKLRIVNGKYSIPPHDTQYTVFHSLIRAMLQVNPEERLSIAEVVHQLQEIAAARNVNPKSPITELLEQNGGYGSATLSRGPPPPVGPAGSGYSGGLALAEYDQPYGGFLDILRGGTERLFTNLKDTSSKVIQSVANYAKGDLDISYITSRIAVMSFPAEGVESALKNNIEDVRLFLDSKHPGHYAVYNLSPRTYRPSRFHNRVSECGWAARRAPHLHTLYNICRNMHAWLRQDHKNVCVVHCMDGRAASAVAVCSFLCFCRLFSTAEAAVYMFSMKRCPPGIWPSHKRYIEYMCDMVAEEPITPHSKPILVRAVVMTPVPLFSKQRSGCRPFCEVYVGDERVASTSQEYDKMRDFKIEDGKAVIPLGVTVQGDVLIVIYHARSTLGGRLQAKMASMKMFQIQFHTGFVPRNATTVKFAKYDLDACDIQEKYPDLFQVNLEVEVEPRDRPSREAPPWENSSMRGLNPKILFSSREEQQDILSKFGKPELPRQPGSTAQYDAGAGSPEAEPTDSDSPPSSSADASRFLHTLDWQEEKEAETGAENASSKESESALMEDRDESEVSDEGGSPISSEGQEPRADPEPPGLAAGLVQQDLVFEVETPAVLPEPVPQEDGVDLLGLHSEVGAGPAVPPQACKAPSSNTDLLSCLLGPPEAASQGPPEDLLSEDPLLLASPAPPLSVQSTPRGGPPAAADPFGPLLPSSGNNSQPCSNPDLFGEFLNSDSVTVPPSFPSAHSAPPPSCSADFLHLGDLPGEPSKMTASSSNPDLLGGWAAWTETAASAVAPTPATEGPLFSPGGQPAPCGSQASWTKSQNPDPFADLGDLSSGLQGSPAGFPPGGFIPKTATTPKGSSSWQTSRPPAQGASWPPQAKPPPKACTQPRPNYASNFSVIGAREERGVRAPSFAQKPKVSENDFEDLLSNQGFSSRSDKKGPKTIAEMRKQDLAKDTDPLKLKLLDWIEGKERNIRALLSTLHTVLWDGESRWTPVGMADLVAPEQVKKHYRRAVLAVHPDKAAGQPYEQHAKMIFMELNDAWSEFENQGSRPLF

CDKL2 (human) = CDKL2 (human) (UniProt Q92772)
CSK (human) = CSK (human) (UniProt P41240)
[3] = test system: FLT3 (human), P36888 [D835Y]
LTK (human) = LTK (human) (UniProt P29376)
CDK16 (human) = CDK16 (human) (UniProt Q00536)
CSNK2A1 (human) = CSNK2A1 (human) (UniProt P68400)
INSRR (human) = INSRR (human) (UniProt P14616)
INSRR (human), sequence (P14616 whole entry, looked up): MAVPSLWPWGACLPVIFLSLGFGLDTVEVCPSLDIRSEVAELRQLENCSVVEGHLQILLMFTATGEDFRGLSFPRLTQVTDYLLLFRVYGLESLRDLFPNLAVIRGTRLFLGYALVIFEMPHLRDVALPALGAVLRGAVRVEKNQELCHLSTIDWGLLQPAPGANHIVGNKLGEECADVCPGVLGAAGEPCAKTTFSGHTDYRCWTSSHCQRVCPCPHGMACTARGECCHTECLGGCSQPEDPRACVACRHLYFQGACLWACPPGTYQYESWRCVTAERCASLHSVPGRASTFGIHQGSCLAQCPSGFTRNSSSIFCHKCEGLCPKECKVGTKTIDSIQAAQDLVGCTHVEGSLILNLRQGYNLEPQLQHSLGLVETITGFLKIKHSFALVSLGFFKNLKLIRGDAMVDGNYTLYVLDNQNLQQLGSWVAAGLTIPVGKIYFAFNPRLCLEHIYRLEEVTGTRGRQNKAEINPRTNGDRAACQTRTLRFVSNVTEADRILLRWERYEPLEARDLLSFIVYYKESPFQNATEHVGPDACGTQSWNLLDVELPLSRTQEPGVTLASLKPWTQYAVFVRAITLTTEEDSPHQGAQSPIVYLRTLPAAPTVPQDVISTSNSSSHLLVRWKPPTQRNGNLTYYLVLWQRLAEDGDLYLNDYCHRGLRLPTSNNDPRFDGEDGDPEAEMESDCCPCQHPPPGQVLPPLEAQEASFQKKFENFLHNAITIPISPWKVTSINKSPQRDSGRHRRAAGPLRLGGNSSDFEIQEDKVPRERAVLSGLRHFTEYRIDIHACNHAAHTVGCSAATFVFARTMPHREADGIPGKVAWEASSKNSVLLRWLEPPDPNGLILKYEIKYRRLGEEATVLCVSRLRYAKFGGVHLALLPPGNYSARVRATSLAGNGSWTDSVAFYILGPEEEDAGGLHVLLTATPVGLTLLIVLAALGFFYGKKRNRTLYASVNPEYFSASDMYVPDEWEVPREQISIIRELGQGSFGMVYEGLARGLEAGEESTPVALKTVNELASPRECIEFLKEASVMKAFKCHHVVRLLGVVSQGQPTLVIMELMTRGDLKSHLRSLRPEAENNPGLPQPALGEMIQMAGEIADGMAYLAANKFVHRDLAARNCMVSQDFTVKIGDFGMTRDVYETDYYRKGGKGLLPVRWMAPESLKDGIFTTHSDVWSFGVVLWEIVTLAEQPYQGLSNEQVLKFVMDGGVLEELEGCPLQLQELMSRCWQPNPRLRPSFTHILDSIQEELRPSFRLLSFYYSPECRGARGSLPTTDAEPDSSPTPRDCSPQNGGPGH

ABL2 (human), sequence (P42684 whole entry, looked up): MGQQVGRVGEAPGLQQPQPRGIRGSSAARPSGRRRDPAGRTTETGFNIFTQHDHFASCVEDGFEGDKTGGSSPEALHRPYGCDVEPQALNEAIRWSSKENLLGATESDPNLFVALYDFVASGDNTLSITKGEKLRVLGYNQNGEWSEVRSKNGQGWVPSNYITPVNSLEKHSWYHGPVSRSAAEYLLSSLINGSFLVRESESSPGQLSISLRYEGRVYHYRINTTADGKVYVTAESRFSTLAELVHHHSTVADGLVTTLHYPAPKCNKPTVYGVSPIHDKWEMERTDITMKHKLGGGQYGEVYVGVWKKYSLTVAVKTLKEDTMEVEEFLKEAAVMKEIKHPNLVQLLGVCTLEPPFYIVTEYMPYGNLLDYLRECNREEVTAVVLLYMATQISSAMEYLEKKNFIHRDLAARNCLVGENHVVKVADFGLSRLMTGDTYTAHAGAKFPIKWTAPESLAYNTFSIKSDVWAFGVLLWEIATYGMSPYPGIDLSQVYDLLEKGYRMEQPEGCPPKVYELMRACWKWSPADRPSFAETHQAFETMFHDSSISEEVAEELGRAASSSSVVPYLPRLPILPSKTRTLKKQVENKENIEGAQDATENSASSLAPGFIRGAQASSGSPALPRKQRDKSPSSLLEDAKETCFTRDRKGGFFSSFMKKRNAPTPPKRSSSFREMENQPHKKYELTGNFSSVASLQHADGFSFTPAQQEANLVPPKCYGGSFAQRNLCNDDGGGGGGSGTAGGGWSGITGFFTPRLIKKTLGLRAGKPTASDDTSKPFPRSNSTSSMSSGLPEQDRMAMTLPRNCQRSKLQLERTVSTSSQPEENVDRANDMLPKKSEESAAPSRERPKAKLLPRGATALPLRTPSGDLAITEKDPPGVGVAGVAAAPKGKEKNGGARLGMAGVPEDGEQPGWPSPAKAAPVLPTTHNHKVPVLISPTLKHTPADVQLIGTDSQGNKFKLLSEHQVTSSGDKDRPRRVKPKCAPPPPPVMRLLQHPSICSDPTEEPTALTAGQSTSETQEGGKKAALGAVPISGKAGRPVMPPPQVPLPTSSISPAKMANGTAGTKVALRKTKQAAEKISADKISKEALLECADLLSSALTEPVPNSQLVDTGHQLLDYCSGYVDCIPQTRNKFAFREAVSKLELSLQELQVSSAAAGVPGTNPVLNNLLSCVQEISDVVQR

SMILES: CCN1CCN(Cc2ccc(NC(=O)c3ccc(C)c(/C=C/c4cnc(Nc5cc(N6CCNCC6)nc(C)n5)cn4)c3)cc2C(F)(F)F)CC1
- kinase still bound, per cent of control (CDK8 (human)): 3.6%
- kinase still bound, per cent of control (SYK (human)): 15%
- kinase still bound, per cent of control (MYLK3 (human)): 59%
- kinase still bound, per cent of control (KIT (human)): 0.15%
- kinase still bound, per cent of control (LATS1 (human)): 55%
- kinase still bound, per cent of control (ABL2 (human)): 0.7%
- kinase still bound, per cent of control (ACVR1B (human)): 96%
- kinase still bound, per cent of control (BRSK1 (human)): 91%
- kinase still bound, per cent of control (TEK (human)): 0%
- kinase still bound, per cent of control (CaMK1 (human)): 90%
- kinase still bound, per cent of control (IGF1R (human)): 87%
- kinase still bound, per cent of control (CHEK2 (human)): 83%
- kinase still bound, per cent of control (CLK3 (human)): 100%
- kinase still bound, per cent of control (CAMK1G (human)): 99%
- kinase still bound, per cent of control (DDR1 (human)): 0%
- kinase still bound, per cent of control (MAPK1 (human)): 100%
- kinase still bound, per cent of control (ALK (human)): 100%
- kinase still bound, per cent of control (STK16 (human)): 100%
- kinase still bound, per cent of control (MKNK1 (human)): 89%
- kinase still bound, per cent of control (RPS6KA5 KD1 (human)): 100%
- kinase still bound, per cent of control (NEK2 (human)): 100%
- kinase still bound, per cent of control [1]: 5.4%
- kinase still bound, per cent of control (EIF2AK2 (human)): 80%
- kinase still bound, per cent of control (PTK6 (human)): 91%
- kinase still bound, per cent of control (INSR (human)): 65%
- kinase still bound, per cent of control (EPHA2 (human)): 5.4%
- kinase still bound, per cent of control (MAP4K2 (human)): 0.1%
- kinase still bound, per cent of control (HCK (human)): 0.4%
- kinase still bound, per cent of control (CDK9 (human)): 99%
- kinase still bound, per cent of control (FES (human)): 9.4%
- kinase still bound, per cent of control (ACVRL1 (human)): 79%
- kinase still bound, per cent of control (NUAK2 (human)): 81%
- kinase still bound, per cent of control (CDK17 (human)): 60%
- kinase still bound, per cent of control (CDK2 (human)): 100%
- kinase still bound, per cent of control [2]: 100%
- kinase still bound, per cent of control (GAK (human)): 51%
- kinase still bound, per cent of control (CDKL2 (human)): 0.15%
- kinase still bound, per cent of control (CSK (human)): 0.55%
- kinase still bound, per cent of control [3]: 3.2%
- kinase still bound, per cent of control (LTK (human)): 100%
- kinase still bound, per cent of control (CDK16 (human)): 60%
- kinase still bound, per cent of control (CSNK2A1 (human)): 89%
- kinase still bound, per cent of control (INSRR (human)): 44%

SMILES: CCN1CCN(Cc2ccc(NC(=O)c3ccc(C)c(Oc4ccnc5[nH]ccc45)c3)cc2C(F)(F)F)CC1
- kinase still bound, per cent of control (CDK8 (human)): 3.9%
- kinase still bound, per cent of control (SYK (human)): 6.2%
- kinase still bound, per cent of control (KIT (human)): 0%
- kinase still bound, per cent of control (ABL2 (human)): 0.6%
- kinase still bound, per cent of control (TEK (human)): 0%
- kinase still bound, per cent of control (CaMK1 (human)): 0%
- kinase still bound, per cent of control (CAMK1G (human)): 20%
- kinase still bound, per cent of control (DDR1 (human)): 0.05%
- kinase still bound, per cent of control (ALK (human)): 0.55%
- kinase still bound, per cent of control (RPS6KA5 KD1 (human)): 4.7%
- kinase still bound, per cent of control [1]: 14%
- kinase still bound, per cent of control (PTK6 (human)): 28%
- kinase still bound, per cent of control (INSR (human)): 30%
- kinase still bound, per cent of control (EPHA2 (human)): 3.1%
- kinase still bound, per cent of control (MAP4K2 (human)): 0.3%
- kinase still bound, per cent of control (HCK (human)): 0.4%
- kinase still bound, per cent of control (CDK9 (human)): 5.8%
- kinase still bound, per cent of control (FES (human)): 2.2%
- kinase still bound, per cent of control (CDK17 (human)): 0.1%
- kinase still bound, per cent of control (CDK2 (human)): 11%
- kinase still bound, per cent of control [2]: 0%
- kinase still bound, per cent of control (GAK (human)): 31%
- kinase still bound, per cent of control (CDKL2 (human)): 0.9%
- kinase still bound, per cent of control (CSK (human)): 0.45%
- kinase still bound, per cent of control [3]: 14%
- kinase still bound, per cent of control (LTK (human)): 1.2%
- kinase still bound, per cent of control (CDK16 (human)): 11%
- kinase still bound, per cent of control (INSRR (human)): 23%
